Measured values reported in article PMC4814829, “Design, synthesis, crystallization and biological evaluation of new symmetrical biscationic compounds as selective inhibitors of human Choline Kinase α1 (ChoKα1)” (Scientific Reports, 2016).

Assays:
[1] = system: MDA-MB-231 cells; experiment: Annexin-V/PI assay; type: cell-based, human; conditions: MDA-MB-231, 72 h; positive controls Cis-Pt 50 μM, Etoposide 5 μM
Method: (§1) Surface exposure of PS on apoptotic cells was measured by flow cytometry with Cytomics FC500 (Beckman Coulter) by adding simultaneously annexin-V conjugated to fluorescein isothiocyanate (FITC) and PI to cells according to the manufacturer′s instructions (Annexin-V Fluos, Roche Diagnostic).

[2] = system: Jurkat cells; experiment: Annexin-V/PI assay; type: cell-based, human; conditions: 72 h, positive controls Cis-Pt 50 μM, Etoposide 5 μM
Method: as §1

[3] = system: MCF-7 cells; experiment: Annexin-V/PI assay; type: cell-based, human; conditions: MCF-7, 72 h; positive controls Cis-Pt 50 μM, Etoposide 5 μM
Method: as §1

[4] = system: MDA-MB-231 cells; experiment: Cell-cycle distribution analysis (PI, flow cytometry); type: cell-based, human
Method: [The source words this procedure for another cell line and reports this cell line under the same test.] (§2) For flow-cytometric analysis of the DNA content, 5 × 10^5 HeLa or Jurkat cells in exponential growth were treated with different concentrations of the test compounds for 24 and 48 h. After the incubation period, the cells were collected, centrifuged, and fixed with ice-cold ethanol (70%). The cells were then treated with lysis buffer containing RNAse A and 0.1% Triton X-100, and then stained with propidium iodide (PI). Samples were analyzed in a Cytomics FC500 flow cytometer (Beckman Coulter). DNA histograms were analyzed using MultiCycle for Windows (Phoenix Flow Systems).

[5] = system: Jurkat cells; experiment: as above; type: cell-based, human
Method: as §2

[6] = system: MCF-7 cells; experiment: as above; type: cell-based, human
Method: [The source words this procedure for another cell line and reports this cell line under the same test.] as §2

[7] = target: T1, human ChoKα1 (Homo sapiens, UniProt P35790); experiment: Tryptophan fluorescence quenching; type: binding; conditions: mean ± S.D. of at least three independent experiments; 25 °C, enzyme 1 μM; read-out: HsChoKα1 Kd
T1 construct: made in house
Method: All compounds were prepared in 100% DMSO. Their Kds against human ChoKα1 were measured by monitoring the quenching of tryptophan fluorescence. All experiments were performed in a Cary Eclipse spectrofluorometer (Varian) at 25 °C with the enzymes at 1 μM, and concentrations of compounds varying from 0.1 to 5 μM for ChoKα1 in 25 mM Tris, 150 mM NaCl, pH 7.5. Fluorescence emission spectra were recorded in the 300–400 nm range with an excitation wavelength of 280 nm, with slit width of 5 nm. Controls were determined by incubating the enzymes with equivalent amounts of DMSO. As indicated previously, data analysis was performed in Prism (GraphPad software) considering a model with a single binding site (Eq. 1), where F0 is the intrinsic fluorescence of the enzyme in the absence of quencher (Q), F1 is the observed fluorescence at a given quencher concentration, fa is the fractional degree of fluorescence, and Kd is the dissociation constant.

[8] = system: panel of nine different human tumor-cell lines; experiment: Antiproliferative activity against the panel of nine human tumor-cell lines; type: cell-based; conditions: Homo sapiens; range or bound over all tested cell lines; read-out: GI50 across the tumor-cell line panel
Method: (§3) Human T-cell leukemia (Jurkat), human B-cell leukemia (RS 4,11) and human promyelocytic leukemia (HL-60) cells were grown in RPMI-1640 medium (Gibco, Milan, Italy). Breast adenocarcinoma (MCF-7 and MDA-MB-231), human non-small cell lung carcinoma (A549), human cervix carcinoma (HeLa), human prostate adenocarcinoma (PC-3), and human colon adenocarcinoma (HT-29) cells were grown in DMEM medium (Gibco, Milan, Italy). Both media were supplemented with 115 units/mL of penicillin G (Gibco, Milan, Italy), 115 μg/mL of streptomycin (Invitrogen, Milan, Italy) and 10% fetal bovine serum (Invitrogen, Milan, Italy). Stock solutions (10 mM) of the different compounds were obtained by dissolving them in DMSO. Individual wells of 96-well tissue-culture microtiter plates were inoculated with 100 μL of complete medium containing 8 × 10^3 cells. The plates were incubated at 37 °C in a humidified 5% CO2 incubator for 18 h prior to the experiments. After medium removal, 100 μL of fresh medium containing the test compound at different concentrations was added to each well and incubated at 37 °C for 72 h. The percentage of DMSO in the medium in no case exceeded 0.25%.

[9] = system: Human fibroblasts; experiment: Antiproliferative assay in non-tumoral cells; type: cell-based; conditions: Fibroblast, mean ± SEM
Description: Human fibroblasts from foreskin were isolated as previously described[58] and maintained in DMEM medium with 10% fetal bovine serum added.

[10] = system: MDA-MB-231 cells; experiment: Trypan blue exclusion assay; type: cell-based, human; conditions: MDA-MB-231, concentration-dependent
Method: as §3

[11] = system: HeLa cells; experiment: Trypan blue exclusion assay; type: cell-based, human; conditions: concentration-dependent
Method: as §3

[12] = system: PBL (+Pha); experiment: Antiproliferative assay in non-tumoral cells (MTT); type: cell-based; conditions: Homo sapiens, non-tumoral cells stimulated with phytohematoagglutinin, 72 h, mean ± SEM
Summary of the method: (§4)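 Healthy-donor PBMC from density gradient, non-adherent cells at 5 × 10^5 cells/mL in RPMI-1640/10% FBS; proliferating cultures stimulated with 2.5 μg/mL PHA, resting cultures unstimulated. Compounds at different concentrations for 72 h; viability by MTT.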

[13] = system: PBL (resting); experiment: Antiproliferative assay in non-tumoral cells (MTT); type: cell-based; conditions: Homo sapiens, 72 h, mean ± SEM
Summary of the method: as §4

[14] = target: purified human ChoKα1 (Homo sapiens, UniProt P35790); experiment: Determination of human choline kinase α1 activity ([methyl-14C]choline incorporation into phosphocholine); type: biochemical; conditions: mean ± SEM, three independent experiments; read-out: IC50 ChoKα1 purified
purified human ChoKα1, sequence (P35790 whole entry): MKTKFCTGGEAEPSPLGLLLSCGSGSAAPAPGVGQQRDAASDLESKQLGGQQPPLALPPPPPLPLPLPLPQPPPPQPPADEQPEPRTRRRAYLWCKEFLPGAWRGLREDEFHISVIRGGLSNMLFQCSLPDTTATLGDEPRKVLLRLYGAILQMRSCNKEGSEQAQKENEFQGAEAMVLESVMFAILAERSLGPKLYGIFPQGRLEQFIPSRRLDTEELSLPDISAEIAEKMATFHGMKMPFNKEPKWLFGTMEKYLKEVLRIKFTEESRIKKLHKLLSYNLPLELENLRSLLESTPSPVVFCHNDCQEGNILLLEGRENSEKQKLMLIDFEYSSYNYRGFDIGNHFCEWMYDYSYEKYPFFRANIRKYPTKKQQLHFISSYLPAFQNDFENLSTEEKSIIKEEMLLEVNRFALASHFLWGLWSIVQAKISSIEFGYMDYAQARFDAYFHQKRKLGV
Method: The effect of the different inhibitors on human choline kinase (ChoK) was assayed in ChoKα1 purified as previously described[32]. In each experiment DMSO-assays were always run in parallel as a control. DMSO in no case exceeded a concentration of 0.1% in order to avoid unspecific ChoK inhibition. ChoK activity was assayed by measuring the rate of incorporation of ^14C from [methyl-^14C]choline into phosphocholine both in the presence or absence of different inhibitor concentrations. Briefly, the final reaction mixture contained 100 mM Tris (pH 8.5), 10 mM MgCl2, and 10 mM ATP, and 20 ng of purified ChoKα1. […] The assay was stopped by immersing the reaction tubes in boiling water for 3 min. Aliquots of the reaction mixture were applied to the origin of Silica Gel plates in the presence of phosphocholine (0.1 mg) and choline (0.1 mg) as carriers. The chromatography was developed in methanol/0.6% NaCl/28% NH4OH in water (50:50:5, v/v/v) as solvent. Phosphocholine was visualized under exposure to iodine vapor and the corresponding spot was scraped and transferred to scintillation vials for measurement of radioactivity by a Beckman 6000-TA (Madrid, Spain) liquid-scintillation counter. At least three experiments were performed in all assays.

T1 sequence (P35790 whole entry): as above

With `CN(C)c1cc[n+](Cc2ccc(OCCOc3ccc(C[n+]4ccc(N(C)C)cc4)cc3)cc2)cc1.[Br-].[Br-]` [Compound 10a, 1,1′-(((ethane-1,2-diylbis(oxy))bis(4,1-phenylene))bis(methylene))bis(4-(dimethylamino)pyridinium) bromide] the “Apoptotic cells (annexin-V/PI)” value [1] was “not to be significantly different from that of the untreated cells”, the “Apoptotic cells (annexin-V/PI)” value [2] was “modest increment in apoptotic cells” and the “Apoptotic cells (annexin-V/PI)” value [3] was “not to be significantly different from that of the untreated cells”. For the same molecule, the “Cells with hypodiploid DNA content (apoptotic cells by cell-cycle analysis)” value (shortened to “Cells with hypodiploid DNA content”) ([4]; MDA-MB-231) was “not detected”, the “Cell-cycle effect (G1 phase)” value ([4]; MDA-MB-231, 24 h, concentration-dependent) was “induced a G1 arrest of the cell cycle” and the “Cells with hypodiploid DNA content” value [5] was “not detected”. For the same molecule, the “Cell-cycle effect (G1 phase)” value ([5]; 24 h, concentration-dependent) was “induced a G1 arrest of the cell cycle”, the “Cells with hypodiploid DNA content” value ([6]; MCF-7) was “not detected” and the “Cell-cycle effect (G1 phase)” value ([6]; MCF-7, 24 h, concentration-dependent) was “induced a G1 arrest of the cell cycle”. The Kd [7] was 700 ± 80 nM, the GI50 [8] was 27 to 120 nM and the GI50 [9] was 5800 ± 1300 nM. For the same molecule, the “Cell growth by trypan blue count” value [10] was “significantly inhibited cell growth”, the “Cell growth by trypan blue count” value [11] was “significantly inhibited cell growth” and the GI50 [12] was 34 ± 7 nM. It also gave a GI50 [13] of 1500 ± 640 nM and an IC50 [14] of 1000 ± 10 nM.
